Experimental data from PMC3094505 (Structure (London, England : 1993), 2011).
Like-named read-outs stand apart in the source and are kept apart here. Where no end group is shown, it is not given here.

How the values were obtained:
[1] = test system: CaM; conditions: ref Mori et al., 2000; cited from earlier work
[2] = test system: (Ca^2+)4-CaM (CaM1-148); type: binding, Paramecium; conditions: Nav1.2_1913-1938 in 6-fold excess, fluorescence anisotropy (Figure S6A)
[3] = molecular target: T1, CaM76-148 (C-domain of CaM) (Paramecium tetraurelia, UniProt P07463); experiment: biochemical
[4] = molecular target: T2, CaM1-148 (full-length CaM) (Paramecium tetraurelia, UniProt P07463); experiment: Fluorescence anisotropy titration of Fl-Nav1.2IQp with CaM1-148; type: binding
[5] = molecular target: T1, CaM76-148 (C-domain of CaM); conditions: read-out: Kd, Ca^2+-saturated CaM76-148 binding, stoichiometric binding, only an upper limit for Kd, fluorescence anisotropy, pH 7.4, 22 °C
[6] = molecular target: T2, CaM1-148 (full-length CaM); experiment: Equilibrium Ca2+ titration of CaM1-148 with Nav1.2IQp; type: biochemical
[7] = molecular target: T2, CaM1-148 (full-length CaM); experiment: Ca2+ titration of apo CaM1-148:Nav1.2IQp complex monitored by 15N/1H-HSQC; type: biochemical; conditions: 15N/1H-HSQC titration, pH 6.8
[8] = molecular target: CaM1-80 (N-domain of CaM) (Paramecium tetraurelia, UniProt P07463); experiment: Equilibrium Ca2+ titration of CaM1-80 with Nav1.2IQp; type: biochemical; conditions: 6 μM CaM, 9 μM Nav1.2IQp, 22 °C; phenylalanine fluorescence
[9] = test system: CaM; conditions: apo CaM compared with (Ca^2+)4-CaM

**Q.** Which “binding to (Ca^2+)4-CaM” value [1] does the source give for “QRAYRRYLLKQKVKKVSSIYKKDKGK [Nav1.2BAA-1913-1938]” here?
**A.** binds to (Ca^2+)4-CaM

**Q.** What about the “simultaneous binding of Nav1.2IQp and Nav1.2_1913-1938 to (Ca^2+)4-CaM” value [2] of the same sequence?
**A.** no evidence for simultaneous binding

**Q.** With “KRKQEEVSAIVIQRAYRRYLLKQKVKK [Fl-Nav1.2IQp]” as the sequence, how does the Kd [3] read?
**A.** ≤ 0.01 µM

**Q.** And the Kd [4]?
**A.** ≤ 0.01 µM

**Q.** What about the Kd [5] of the same sequence?
**A.** ≤ 0.01 µM

**Q.** For KRKQEEVSAIVIQRAYRRYLLKQKVKK [Nav1.2IQp], which “effect on Ca^2+ binding to sites I and II of CaM1-148” value ([6]; 6 μM CaM, 9 μM Nav1.2IQp, 22 °C, phenylalanine fluorescence) is on record?
**A.** little effect

**Q.** And the “lowering of overall Ca^2+-binding affinity of CaM (free energy)” value ([6]; overall, CaM, with versus without Nav1.2IQp (Figure 2D))?
**A.** 4.03 kcal/mol

**Q.** And the “Ca^2+-binding affinity of sites I and II relative to sites III and IV of CaM1-148 bound to Nav1.2IQp” value [7]?
**A.** slightly more favorable

**Q.** What about the “effect on Ca^2+ binding to sites I and II of CaM1-80” value [8] of the same sequence?
**A.** little effect

**Q.** What about the “relative affinity for apo CaM versus (Ca^2+)4-CaM” value [9] of the same sequence?
**A.** higher affinity for apo CaM than (Ca^2+)4-CaM
